Test systems include PC-3 prostate; T-47D breast; NCI/ADR-RES ovarian; MCF7 breast; HS 578T breast; MDA-MB-435.
Assay in all cases: DTP human tumour cell line panel, 48 h

Where “and” joins values, the source holds several entries; their conditions need not be identical. Equal values may be shown once.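 In this assay, cells in 96-well plates receive the compound at five concentrations for 48 hours. Endpoints are linearly interpolated between the surrounding concentrations. GI50: concentration for 50% inhibition of growth. Definition used: TGI = concentration required for complete inhibition of growth.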

A word on the TGI: it is the concentration giving total growth inhibition. A higher TGI goes with less potent growth arrest. As to `NC(=NCc1ccccc1)N/N=C\c1ccnc2ccccc12`, the total growth inhibition concentration (TGI) with PC-3 prostate amounted to 35.9 µM; in the assay with T-47D breast it was 5.87 µM; in the assay on NCI/ADR-RES ovarian, 35.6 µM; with MCF7 breast, 25.5 µM; in the assay on HS 578T breast, 49.4 µM; in the assay with MDA-MB-435, 23.9 µM.
For orientation: GI50 means the concentration that inhibits growth by half. Regarding `c1ccc(COc2ccc(Nc3ncnc4ccc(-c5ccco5)cc34)cc2)cc1`, the GI50 with PC-3 prostate was 8.47 µM; in the assay with T-47D breast it was 4.09 µM; in the assay on NCI/ADR-RES ovarian, 7.97 µM; with MCF7 breast, 0.572 µM; in the assay with HS 578T breast it was 7.71 µM; with MDA-MB-435 it was 6.83 µM. In addition, the TGI was greater than 23.5 µM in the assay on PC-3 prostate; 16.8 µM in the assay with T-47D breast; greater than 25 µM with NCI/ADR-RES ovarian; greater than 13.5 µM with MCF7 breast; greater than 23.5 µM in the assay on HS 578T breast; 22.3 µM with MDA-MB-435.
On to `OCCC#Cc1ccccc1C#Cc1ccccc1`, for which the GI50 with PC-3 prostate is 13.7 µM; in the assay on T-47D breast, 39.3 µM; with NCI/ADR-RES ovarian, 17.9 µM; with MCF7 breast, 22.7 µM; in the assay on HS 578T breast, 11.9 µM; with MDA-MB-435, 11.4 µM. Besides, the TGI with PC-3 prostate was 35.5 µM; in the assay on T-47D breast, greater than 100 µM; with NCI/ADR-RES ovarian it was 53.6 µM; in the assay on MCF7 breast it was 46.5 µM; in the assay on HS 578T breast, 33.3 µM; in the assay with MDA-MB-435, 23.5 µM.
On to `Cn1cc(-c2ccc3c(c2)ncn3-c2ccc(CC(=O)Nc3cc(C(C)(C)C)on3)cc2)cn1`, for which the GI50 was 2.78 µM with PC-3 prostate; 0.683 µM in the assay on T-47D breast; 2.23 µM in the assay on NCI/ADR-RES ovarian; 1.55 µM in the assay with MCF7 breast; 0.187 µM with HS 578T breast; 2.55 µM with MDA-MB-435. Besides, the TGI was greater than 74.7 µM in the assay with PC-3 prostate; 25.5 µM in the assay on T-47D breast; greater than 35.1 µM in the assay on NCI/ADR-RES ovarian; greater than 52 µM in the assay on MCF7 breast; 1.46 µM in the assay on HS 578T breast; greater than 100 µM in the assay with MDA-MB-435.
With `CCN=C(N)CSS(=O)(=O)O`, the TGI in the assay with PC-3 prostate, in the assay on T-47D breast, in the assay on NCI/ADR-RES ovarian, in the assay on MCF7 breast, in the assay with HS 578T breast and in the assay on MDA-MB-435 was greater than 100 µM each time.
Turning to `CCN1C(=O)N(CC)C2C1NN=c1s/c(=C\c3ccc([N+](=O)[O-])cc3)c(=O)n12` (stereo unspecified), the GI50 in the assay with PC-3 prostate is 0.387 µM; with T-47D breast it was 0.575 µM; with NCI/ADR-RES ovarian, 0.396 µM; in the assay with MCF7 breast, 0.315 µM; in the assay with HS 578T breast, 0.328 µM. The total growth inhibition concentration (TGI) is greater than 75.9 µM in the assay with PC-3 prostate; greater than 100 µM with T-47D breast; greater than 45.2 µM in the assay with NCI/ADR-RES ovarian; greater than 100 µM in the assay with MCF7 breast; greater than 72.5 µM with HS 578T breast.
As to `COC(=O)C1(C)CCc2c(ccc3ccccc23)C1=O` (stereo unspecified), the TGI with PC-3 prostate was greater than 100 µM; with T-47D breast, 72.8 µM; in the assay with NCI/ADR-RES ovarian, greater than 100 µM; in the assay on MCF7 breast it was 81.2 µM; with HS 578T breast it was greater than 100 µM; in the assay on MDA-MB-435, greater than 100 µM.
Turning to `NCCCNCCCNc1nc2ccccc2c2[nH]c3ccccc3c12`, the GI50 with PC-3 prostate is 0.481 µM; in the assay with T-47D breast, 0.334 µM; in the assay with NCI/ADR-RES ovarian it was 0.645 µM and 0.621 µM; with MCF7 breast, 0.00804 µM; in the assay with HS 578T breast, 0.132 µM; in the assay with MDA-MB-435 it was 0.581 µM. Also, the TGI in the assay on PC-3 prostate is 2.14 µM; in the assay with T-47D breast, 2.69 µM; in the assay on NCI/ADR-RES ovarian, greater than 100 µM; with MCF7 breast, 1.85 µM; with HS 578T breast, 1.54 µM; with MDA-MB-435, 2.08 µM.
Take `C=C(CNCCc1ccc(O)cc1)[C@@H]1CC[C@]2(CO)CC[C@]3(C)[C@H](CC[C@@H]4[C@@]5(C)CCC(NCCO)C(C)(C)[C@@H]5CC[C@]43C)[C@@H]12` (stereo partly specified): the GI50 in the assay with PC-3 prostate was 1.6 µM; with T-47D breast it was 1.79 µM; in the assay on NCI/ADR-RES ovarian, 2.09 µM; in the assay on MCF7 breast it was 0.4 µM; with HS 578T breast, 1.69 µM; in the assay on MDA-MB-435, 1.51 µM. For the same molecule, the TGI in the assay with PC-3 prostate was determined as 3.29 µM; with T-47D breast, 3.96 µM; in the assay with NCI/ADR-RES ovarian, 4.88 µM; in the assay with MCF7 breast it was 1.76 µM; with HS 578T breast it was 3.85 µM; in the assay with MDA-MB-435, 2.97 µM.
On to `CCOC(=O)/C(=C/c1c(-c2ccccc2)[nH]c2ccccc12)C(=O)c1ccc(Cl)cc1`, for which the GI50 with PC-3 prostate was 3.08 µM; in the assay on T-47D breast, 2.27 µM; in the assay on NCI/ADR-RES ovarian it was 2.69 µM; in the assay on MCF7 breast, 2.91 µM; in the assay on HS 578T breast, 3.73 µM; in the assay with MDA-MB-435, 3.02 µM. The TGI was greater than 100 µM in the assay with PC-3 prostate; 8.24 µM in the assay with T-47D breast; greater than 100 µM with NCI/ADR-RES ovarian; greater than 100 µM in the assay with MCF7 breast; 57.5 µM in the assay with HS 578T breast; greater than 100 µM in the assay with MDA-MB-435.
`CN(C)c1ccc(N=C(C#N)c2nc(N)nc(N3CCOCC3)n2)cc1`: the GI50 in the assay on PC-3 prostate is 44.1 µM; in the assay with T-47D breast it was greater than 100 µM; in the assay on NCI/ADR-RES ovarian it was 27.1 µM; with MDA-MB-435, 53.2 µM. Further, the TGI in the assay on PC-3 prostate was greater than 100 µM; with T-47D breast, greater than 100 µM; with NCI/ADR-RES ovarian, 62.8 µM; in the assay on MDA-MB-435, greater than 100 µM.
For `COC(=O)Oc1nn(C(=O)OC)c(=O)c2ccccc12` (tested in a mixture with another compound), the TGI in the assay on PC-3 prostate, in the assay on T-47D breast, in the assay with NCI/ADR-RES ovarian, with MCF7 breast, in the assay with HS 578T breast and in the assay with MDA-MB-435 was greater than 100 µM each time.
As to `CC1(C)OCC(C2OC(On3nnc4ccc(Cl)cc43)C3OC(C)(C)OC23)O1` (stereo unspecified), the TGI with PC-3 prostate, in the assay with T-47D breast, with NCI/ADR-RES ovarian, in the assay on MCF7 breast, in the assay with HS 578T breast and in the assay with MDA-MB-435 was greater than 100 µM each time.
On to `O=S(=O)(Nc1ccc2ccc3cccc4ccc1c2c34)c1ccccc1`, for which the TGI with PC-3 prostate was greater than 100 µM; with T-47D breast, greater than 100 µM; in the assay with NCI/ADR-RES ovarian, greater than 100 µM; with MCF7 breast it was greater than 100 µM; with HS 578T breast it was greater than 100 µM; in the assay on MDA-MB-435 it was 24.4 µM.

The record behind these values is PubChem BioAssay (NCI).
